The record followed here is PMC4890880 (ACS infectious diseases, 2016).

Like-named read-outs stand apart in the source and are kept apart here.

What is called inhibition is the drop in the measured response relative to a control, in per cent.

In data set [1] the test system is HepG2-A16-CD81EGFP cells. Conditions: human, 50 uM.
The subject of data set [2] is HepG2-A16-CD81EGFP cells. As to the kind of experiment: cells. Conditions: Homo sapiens, HepG2, read-out: % inhibition.
In data set [3] the test system is Plasmodium berghei (Pb-Luc) exoerythrocytic-stage parasites. Nature of the data set: microbe, parasite or virus in culture.
Where [4] appears, read: read-out: Inhibition% @ 50 uM rep1.
Setting [5] is: read-out: Inhibition% @ 50 uM rep2.

In the case of `CCOc1cc2c(cc1OCC)C(c1cc(Cl)c(O)c(OCC)c1)NCC2` (stereo not shown) [MMV000481], the “HepG2 Tox% @ 50 uM rep1” value in data set [1] is reported as 20%. Moreover, the inhibition at 50 µM in data set [2] was 20.4%; in data set [3] (setting [4]), 73%; in data set [3] (setting [5]), 75%.

As for `CCN(CC)c1cc(C)c2cc(NC(=O)c3cccc(OC)c3)ccc2n1` [MMV000498], in data set [1], the “HepG2 Tox% @ 50 uM rep1” value is 100%. Moreover, the “HepG2 Tox% @ 50 uM rep2” value in data set [1] was 101%. Also, the inhibition at 50 µM in data set [2] came out at 99.5%; in data set [3] (setting [4]), 104%; in data set [3] (setting [5]), 106%.

For the compound `CCc1ccc(Nc2cc(C)c3ccc(O)cc3n2)cc1` [MMV000570], the “HepG2 Tox% @ 50 uM rep2” value in data set [1] was found to be 100%. In addition, the inhibition at 50 µM was 98.1% in data set [2], 103% in data set [3] (setting [4]) and 105% in data set [3] (setting [5]).

Turning to `COc1ccc(Nc2nc(NCc3ccccc3)c3ccccc3n2)cc1` [MMV000963], in data set [1], the “HepG2 Tox% @ 50 uM rep2” value was 100%. Moreover, the inhibition at 50 µM in data set [2] was 99.3%; in data set [3] (setting [4]) it was 103%; in data set [3] (setting [5]) it was 106%.

Consider `CCOc1cccc2sc(N(Cc3cccnc3)C(=O)C3CCCCC3)nc12` [MMV001230], for which the “HepG2 Tox% @ 50 uM rep2” value in data set [1] was 99%. Further, the inhibition at 50 µM in data set [2] came out at 97.3%; in data set [3] (setting [4]), 102%; in data set [3] (setting [5]) it was 103%.

For `COc1ccc(CCNC(=O)c2cc(S(=O)(=O)N3CC(C)CC(C)C3)ccc2Sc2ccc(F)cc2)cc1OC` (stereo not shown) [MMV007557], in data set [1], the “HepG2 Tox% @ 50 uM rep1” value is -12%. Moreover, the inhibition at 50 µM in data set [2] was -11.7%; in data set [3] (setting [4]) it was 19%; in data set [3] (setting [5]), 15%.

Turning to `COc1ccc2nc(C)cc(Nc3ccc(Cl)cc3)c2c1` [MMV007875], the “HepG2 Tox% @ 50 uM rep2” value in data set [1] is given as 99%. The inhibition at 50 µM in data set [2] stood at 94.8%; in data set [3] (setting [4]) it was 99%; in data set [3] (setting [5]), 101%.

In the case of `OC(CNC1CCCCC1)Cn1c2ccccc2c2ccccc21` (stereo not shown) [MMV009063], in data set [1], the “HepG2 Tox% @ 50 uM rep2” value amounted to 101%. Besides, the inhibition at 50 µM was found to be 98.6% in data set [2], 104% in data set [3] (setting [4]) and 105% in data set [3] (setting [5]).

As for `COc1cccc(Nc2nc(NCCO)c3ccccc3n2)c1` [MMV011944], the “HepG2 Tox% @ 50 uM rep1” value in data set [1] was determined as 100%. For the same compound, the “HepG2 Tox% @ 50 uM rep2” value in data set [1] is 101%. Further, the inhibition at 50 µM came to 99.7% in data set [2], 103% in data set [3] (setting [4]) and 106% in data set [3] (setting [5]).

On to `COCCNCC(O)Cn1c2ccc(Cl)cc2c2cc(Cl)ccc21` (stereo not shown) [MMV019017], for which, in data set [1], the “HepG2 Tox% @ 50 uM rep2” value is reported as 99%. Further, the values for the inhibition at 50 µM in data set [2], in data set [3] (setting [4]) and in data set [3] (setting [5]) were 96.7%, 103% and 102%, respectively.

For the compound `Cn1c(=O)c2cc(C(=O)NCCCN3CCCCCC3)sc2c2ccccc21` [MMV019313], the “HepG2 Tox% @ 50 uM rep1” value in data set [1] amounted to 100%. Also, the inhibition at 50 µM in data set [2] stood at 99.9%; in data set [3] (setting [4]), 104%; in data set [3] (setting [5]), 106%.

As to `CCN1CCN(Cc2ccc(NC(=O)c3cc4ccc5cccnc5c4[nH]3)cc2)CC1` [MMV020548], in data set [1], the “HepG2 Tox% @ 50 uM rep2” value is recorded as 100%. Besides, the inhibition at 50 µM in data set [2] came to 98.4%; in data set [3] (setting [4]), 102%; in data set [3] (setting [5]) it was 106%.

In the case of `O=C(Nc1ccc(CN2CCOCC2)cc1)c1ccc(-c2cc(Cl)ccc2Cl)o1` [MMV020651], the “HepG2 Tox% @ 50 uM rep2” value in data set [1] was found to be 96%. In addition, the inhibition at 50 µM in data set [2] amounted to 93.9%; in data set [3] (setting [4]), 100%; in data set [3] (setting [5]), 99%.

Regarding `CCC(=O)Nc1nnc(Cc2ccc(OC)c(OC)c2)s1` [MMV020942], the “HepG2 Tox% @ 50 uM rep1” value in data set [1] was -26%. In addition, the inhibition at 50 µM is -25.5% in data set [2], -19% in data set [3] (setting [4]) and -37% in data set [3] (setting [5]).

Regarding `COC(=O)c1ccc(Cl)c2c1C1C=CCC1C(c1cccc3ccccc13)N2` (stereo not shown) [MMV667489], the inhibition at 50 µM in data set [2] is 61.4%; in data set [3] (setting [4]), 97%; in data set [3] (setting [5]), 99%.
